Each compound was assayed against T1, Cys12 of the KRAS 4B G12C protein (Homo sapiens, UniProt P01116, G12C) (assay: In vitro covalent adduct formation (CAF) assay, LC-MS intact mass). Conditions: 10 uM compound, 60 min.
T1 construct: This protein contained 188 amino acids in total, including an N-terminal 6-Histidine tag; made in house; host or cells: E. coli BL21
Type: binding
Summary of the method: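 GDP-loaded (>95%) His-TEV-tagged KRAS 4B G12C (residues 1–169), 5 μM in TBS pH 7.4, incubated with 10 μM compound (4% DMSO) at 22° C for one hour. Intact-protein LC-MS gave free:adduct ratios, reported as percent protein modified; duplicate runs.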

Row | % CAF 10 uM @ 60 min | SMILES
1 | 94.5% | C=CC(=O)N1[C@H](C)CN(c2nc(=O)n3c4c(c(-c5cc(Cl)c(F)cc5F)c(C(F)(F)F)cc24)SC[C@@H]3CN2C[C@@H]3C[C@H]2CO3)C[C@@H]1C (atropisomer, axis not shown) [Example 1331, (3S,10R)-3-(((1S,4S)-2-oxa-5-azabicyclo[2.2.1]heptan-5-yl)methyl)-7-((3S,5R)-4-acryloyl-3,5-dimethylpiperazin-1-yl)-10-(5-chloro-2,4-difluorophenyl)-9-(trifluoromethyl)-2,3-dihydro-5H-[1,4]thiazino[2,3,4-ij]quinazolin-5-one]
2 | 83.7% | C=CC(=O)N1[C@H](C)CN(c2nc(=O)n3c4c(c(-c5ccc(F)cc5)c(C(F)(F)F)cc24)SC[C@H](COC)C3)C[C@@H]1C [Example 1408, (S)-8-((3S,5R)-4-acryloyl-3,5-dimethylpiperazin-1-yl)-11-(4-fluorophenyl)-3-(methoxymethyl)-10-(trifluoromethyl)-3,4-dihydro-2H,6H-[1,4]thiazepino[2,3,4-ij]quinazolin-6-one]
3 | 92.4% | C=CC(=O)N1CCN(c2nc(=O)n3c4c(c(-c5ccc(F)c(Cl)c5)c(C(F)(F)F)cc24)SCC2(COC2)C3)CC1 [Example 1357, 8-(4-acryloylpiperazin-1-yl)-11-(3-chloro-4-fluorophenyl)-10-(trifluoromethyl)-2H-spiro[[1,4]thiazepino[2,3,4-ij]quinazoline-3,3′-oxetan]-6(4H)-one]
4 | 96.3% | C=CC(=O)N1[C@H](C)CN(c2nc(=O)n3c4c(c(-c5ccc(F)cc5F)c(C(F)(F)F)cc24)SC[C@@H]3COCOC)C[C@@H]1C (atropisomer, axis not shown) [Example 1319, (3S,10S)-7-((3S,5R)-4-acryloyl-3,5-dimethylpiperazin-1-yl)-10-(2,4-difluorophenyl)-3-((methoxymethoxy)methyl)-9-(trifluoromethyl)-2,3-dihydro-5H-[1,4]thiazino[2,3,4-ij]quinazolin-5-one]
5 | 64.6% | C=CC(=O)N1[C@H](C)CN(c2nc(=O)n3c4c(c(-c5cc(Cl)c(F)cc5F)c(C(F)(F)F)cc24)SC[C@@H]3COCOC)C[C@@H]1C (atropisomer, axis not shown) [Example 1369]
6 | 54% | C=CC(=O)N1[C@H](C)CN(c2nc(=O)n3c4c(c(-c5cc(Cl)c(F)cc5F)c(C(F)(F)F)cc24)SC[C@@H]3CN2CC[C@H](F)C2)C[C@@H]1C (atropisomer, axis not shown) [Example 1438, (3S,10S)-7-((3S,5R)-4-acryloyl-3,5-dimethylpiperazin-1-yl)-10-(5-chloro-2,4-difluorophenyl)-3-(((S)-3-fluoropyrrolidin-1-yl)methyl)-9-(trifluoromethyl)-2,3-dihydro-5H-[1,4]thiazino[2,3,4-ij]quinazolin-5-one]
7 | 96% | C=CC(=O)N1C[C@H](C)N(c2nc(=O)n3c4c(c(-c5ccc(F)c(Cl)c5)c(C(F)(F)F)cc24)SCC2(COC2)C3)C[C@H]1C [Example 1354, 8′-((2S,5R)-4-acryloyl-2,5-dimethylpiperazin-1-yl)-11′-(3-chloro-4-fluorophenyl)-10′-(trifluoromethyl)-2′H,4′H,6′H-spiro[oxetane-3,3′-[1,4]thiazepino[2,3,4-ij]quinazolin]-6′-one]
8 | 95.5% | C=CC(=O)N1CCN(c2nc(=O)n3c4c(c(-c5c(F)cccc5F)c(C(F)(F)F)cc24)SC[C@@H]3COC)CC1 [Example 1377, (S)-7-(4-acryloylpiperazin-1-yl)-10-(2,6-difluorophenyl)-3-(methoxymethyl)-9-(trifluoromethyl)-2,3-dihydro-5H-[1,4]thiazino[2,3,4-ij]quinazolin-5-one]

More lines, now with the values behind:

Row | SMILES | % CAF 10 uM @ 60 min
9 | C=CC(=O)N1[C@H](C)CN(c2nc(=O)n3c4c(c(-c5ccc(F)cc5F)c(C(F)(F)F)cc24)SC[C@@H]3CN2C[C@@H]3C[C@H]2CO3)C[C@@H]1C (atropisomer, axis not shown) [Example 1301, (3S)-3-((1S,4S)-2-oxa-5-azabicyclo[2.2.1]heptan-5-ylmethyl)-7-((3S,5R)-4-acryloyl-3,5-dimethylpiperazin-1-yl)-10-(2,4-difluorophenyl)-9-(trifluoromethyl)-2H-[1,4]thiazino[2,3,4-ij]quinazolin-5(3H)-one] | 96.4%
10 | C=CC(=O)N1C[C@H](C)N(c2nc(=O)n3c4c(c(-c5cc(Cl)c(F)cc5F)c(C(F)(F)F)cc24)SC[C@@H]3CN2CCC3(CC2)COC3)C[C@H]1C (atropisomer, axis not shown) [Example 1312, (3S,10S)-3-((2-oxa-7-azaspiro[3.5]nonan-7-yl)methyl)-7-((2S,5R)-4-acryloyl-2,5-dimethylpiperazin-1-yl)-10-(5-chloro-2,4-difluorophenyl)-9-(trifluoromethyl)-2,3-dihydro-5H-[1,4]thiazino[2,3,4-ij]quinazolin-5-one] | 72%

Same assay, conditions: 10 uM compound, 60 min incubation

Row | % CAF 10 uM @ 60 min | SMILES
11 | 71.7% | C=CC(=O)N1[C@H](C)CN(c2nc(=O)n3c4c(c(-c5cc(Cl)c(F)cc5F)c(C(F)(F)F)cc24)SC[C@H](N2CCOCC2)C3)C[C@@H]1C (atropisomer, axis not shown) [Example 1114, (3R,11R)-8-((3S,5R)-4-acryloyl-3,5-dimethylpiperazin-1-yl)-11-(5-chloro-2,4-difluorophenyl)-3-morpholino-10-(trifluoromethyl)-3,4-dihydro-2H,6H-[1,4]thiazepino [2,3,4-ij]quinazolin-6-one]
12 | 65.8% | C=CC(=O)N1CCN(c2nc(=O)n3c4c(c(-c5ccc(F)cc5F)c(C(F)(F)F)cc24)SCC2(COC2)C3)CC1 (atropisomer, axis not shown) [Example 1128, (S)-8′-(4-acryloylpiperazin-1-yl)-11′-(2,4-difluorophenyl)-10′-(trifluoromethyl)-2′H,4′H,6′H-spiro[oxetane-3,3′-[1,4]thiazepino [2,3,4-ij]quinazolin]-6′-one]

Same assay, conditions: 10 μM compound, after 1 hour

Row | CAF (% after 1 hour) | SMILES
13 | 95% | C=CC(=O)N1[C@H](C)CN(c2nc(=O)n3c4c(c(-c5ccc(F)cc5)c(C(F)(F)F)cc24)SC[C@@H](OCF)C3)C[C@@H]1C [Example 1217, (S)-8-((3S,5R)-4-acryloyl-3,5-dimethylpiperazin-1-yl)-3-(fluoromethoxy)-11-(4-fluorophenyl)-10-(trifluoromethyl)-3,4-dihydro-2H,6H-[1,4]thiazepino[2,3,4-ij]quinazolin-6-one]
14 | 94% | C=CC(=O)N1[C@H](C)CN(c2nc(=O)n3c4c(c(-c5ncc(C(F)(F)F)s5)c(C(F)(F)F)cc24)SC[C@@H](OC)C3)C[C@@H]1C [Example 1216, (S)-8-((3S,5R)-4-acryloyl-3,5-dimethylpiperazin-1-yl)-3-methoxy-10-(trifluoromethyl)-11-(5-(trifluoromethyl)thiazol-2-yl)-3,4-dihydro-2H,6H-[1,4]thiazepino[2,3,4-ij]quinazolin-6-one]
15 | 59% | C=CC(=O)N1CCN(c2nc(=O)n3c4c(c(-c5cc(Cl)c(F)cc5F)c(C(F)(F)F)cc24)SC[C@@H](OC)C3)[C@@H]2COC[C@@H]21 [Example 1213, (3S)-8-((4aR,7aS)-4-acryloylhexahydrofuro[3,4-b]pyrazin-1(2H)-yl)-11-(5-chloro-2,4-difluorophenyl)-3-methoxy-10-(trifluoromethyl)-3,4-dihydro-2H,6H-[1,4]thiazepino[2,3,4-ij]quinazolin-6-one]
